Laboratory results from patent publication US20240158446A1, “CYCLIC COMPOUND HAVING SELECTIVE INHIBITORY ACTION ON KRAS OVER HRAS AND NRAS” (CHUGAI SEIYAKU KABUSHIKI KAISHA, priority 2021, published 2024).
*1 amine or outer side, *2 acyl side, *3 side chain or, on linkers, in order; H or OH if unused. Where a SMILES comes first, the peptide text is derived from it. Bridges are numbered along the chain shown (N, C = ends). [ ]: non-standard residue; d: D form. The star is where a group is joined. hPhe(3,5-F2-4-CF3) = N[C@@H](CCc1cc(F)c(C(F)(F)F)c(F)c1)C(=O)O; NPrPhe(4-CF3) = CCCN[C@@H](Cc1ccc(C(F)(F)F)cc1)C(=O)O; NMeAbu(4,4,4-F3) = CN[C@@H](CC(F)(F)F)C(=O)O; NMeGly(cPent) = CN[C@H](C(=O)O)C1CCCC1; Ac4c(3,3-F2) = NC1(C(=O)O)CC(F)(F)C1; X11 = CCC[C@](C)(N[*:1])C(=O)[*:2]; αMeCha = C[C@](N)(CC1CCCCC1)C(=O)O; Nva(3-Et) = CCC(CC)[C@H](N)C(=O)O; αMeI = CC[C@H](C)[C@](C)(N)C(=O)O; αMeF = C[C@](N)(Cc1ccccc1)C(=O)O; NMeD = CN[C@@H](CC(=O)O)C(=O)O; Ac4c(3-oxa) = NC1(C(=O)O)COC1; NMeL = CN[C@@H](CC(C)C)C(=O)O; αMeL = CC(C)C[C@](C)(N)C(=O)O; αMeS = C[C@](N)(CO)C(=O)O; Ac5c = NC1(C(=O)O)CCCC1; Sar = CNCC(=O)O; tBu = CC(C)(C)*; Allyl = C=CC*

How the values were obtained:
[1] = molecular target: GDP-bound KRAS wild-type protein (Homo sapiens, UniProt P01116); test: Binding to KRAS by surface plasmon resonance (SPR), Single Cycle Kinetics; settings: SPR Single Cycle Kinetics, GDP-bound KRAS wild-type protein, 1:1 binding model; read-out: KRAS KD
Chain of GDP-bound KRAS wild-type protein (P01116 whole entry): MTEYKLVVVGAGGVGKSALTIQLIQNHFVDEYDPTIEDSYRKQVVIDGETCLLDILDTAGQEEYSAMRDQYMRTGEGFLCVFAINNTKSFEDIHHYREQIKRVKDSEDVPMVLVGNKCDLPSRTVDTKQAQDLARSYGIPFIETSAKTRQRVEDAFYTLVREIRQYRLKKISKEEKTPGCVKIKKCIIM

[2] = molecular target: GDP-bound HRAS wild-type protein (Homo sapiens, UniProt P01112); test: Binding to HRAS by surface plasmon resonance (SPR), Single Cycle Kinetics; settings: SPR, GDP-bound HRAS wild-type protein vs GDP-bound KRAS wild-type protein
Chain of GDP-bound HRAS wild-type protein (P01112 whole entry): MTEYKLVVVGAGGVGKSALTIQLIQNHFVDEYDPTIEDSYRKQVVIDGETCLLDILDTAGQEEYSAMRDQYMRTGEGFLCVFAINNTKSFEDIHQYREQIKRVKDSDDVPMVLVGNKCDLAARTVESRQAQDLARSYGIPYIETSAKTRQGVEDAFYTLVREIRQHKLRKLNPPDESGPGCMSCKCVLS

[3] = molecular target: GDP-bound NRAS wild-type protein (Homo sapiens, UniProt P01111); test: Binding to NRAS by surface plasmon resonance (SPR), Single Cycle Kinetics; settings: SPR, GDP-bound NRAS wild-type protein vs GDP-bound KRAS wild-type protein
Chain of GDP-bound NRAS wild-type protein (P01111 whole entry): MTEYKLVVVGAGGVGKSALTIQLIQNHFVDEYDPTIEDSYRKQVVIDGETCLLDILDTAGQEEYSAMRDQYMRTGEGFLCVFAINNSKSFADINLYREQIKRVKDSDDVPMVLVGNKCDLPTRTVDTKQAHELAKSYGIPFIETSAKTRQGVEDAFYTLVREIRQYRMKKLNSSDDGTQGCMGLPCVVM

| Kd [1] [nM] | Compound | HRAS/KRAS (ratio of KD value with respect to HRAS to KD value with respect to KRAS) [2] | NRAS/KRAS (ratio of KD value with respect to NRAS to KD value with respect to KRAS) [3] |
| --- | --- | --- | --- |
| 1.8 | CCCN1C(=O)CN(C)C(=O)CN(C)C(=O)[C@H]([C@@H](C)CC)NC(=O)[C@H](CC(C)C)N(C)C(=O)C[C@@H](C(=O)N(C)C)N(C)C(=O)[C@H](C2CCCC2)N(C)C(=O)[C@](C)([C@@H](C)CC)NC(=O)[C@@H]2CCCN2C(=O)[C@H](CCc2cc(F)c(C(F)(F)F)c(F)c2)NC(=O)CN(C)C(=O)[C@@H]1Cc1ccc(C(F)(F)F)cc1 [PP0736] ([NMeL]I[Sar][Sar][NPrPhe(4-CF3)][Sar][hPhe(3,5-F2-4-CF3)]P[αMeI][NMeGly(cPent)][NMeD]-NMe2; lactam N-11) | C (A compound having a KD ratio of 0.1 or more and less than 3 is denoted as C) | B (a compound having 3 or more and less than 10 is denoted as B) |
| 0.55 | CCCN1C(=O)CN(C)C(=O)CN(C)C(=O)[C@H]([C@@H](C)CC)NC(=O)[C@H](CC(C)C)N(C)C(=O)C[C@@H](C(=O)N(C)C)N(C)C(=O)[C@H](C2CCCC2)N(C)C(=O)[C@](C)(CCC)NC(=O)[C@@H]2CCCN2C(=O)[C@H](CCc2cc(F)c(C(F)(F)F)c(F)c2)NC(=O)CN(C)C(=O)[C@@H]1Cc1ccc(C(F)(F)F)cc1 [PP0737] ([NMeL]I[Sar][Sar][NPrPhe(4-CF3)][Sar][hPhe(3,5-F2-4-CF3)]P[X11][NMeGly(cPent)][NMeD]-NMe2; lactam N-11) | C (A compound having a KD ratio of 0.1 or more and less than 3 is denoted as C) | B (a compound having 3 or more and less than 10 is denoted as B) |
| 0.64 | CCCN1C(=O)CN(C)C(=O)CN(C)C(=O)[C@H]([C@@H](C)CC)NC(=O)[C@H](CC(C)C)N(C)C(=O)C[C@@H](C(=O)N(C)C)N(C)C(=O)[C@H](C2CCCC2)N(C)C(=O)[C@](C)(CC(C)C)NC(=O)[C@@H]2CCCN2C(=O)[C@H](CCc2cc(F)c(C(F)(F)F)c(F)c2)NC(=O)CN(C)C(=O)[C@@H]1Cc1ccc(C(F)(F)F)cc1 [PP0738] ([NMeL]I[Sar][Sar][NPrPhe(4-CF3)][Sar][hPhe(3,5-F2-4-CF3)]P[αMeL][NMeGly(cPent)][NMeD]-NMe2; lactam N-11) | B (a compound having 3 or more and less than 10 is denoted as B) | B (a compound having 3 or more and less than 10 is denoted as B) |
| 3.7 | CCCN1C(=O)CN(C)C(=O)CN(C)C(=O)[C@H]([C@@H](C)CC)NC(=O)[C@H](CC(C)C)N(C)C(=O)C[C@@H](C(=O)N(C)C)N(C)C(=O)[C@H](C2CCCC2)N(C)C(=O)[C@](C)(CC2CCCCC2)NC(=O)[C@@H]2CCCN2C(=O)[C@H](CCc2cc(F)c(C(F)(F)F)c(F)c2)NC(=O)CN(C)C(=O)[C@@H]1Cc1ccc(C(F)(F)F)cc1 [PP0739] ([NMeL]I[Sar][Sar][NPrPhe(4-CF3)][Sar][hPhe(3,5-F2-4-CF3)]P[αMeCha][NMeGly(cPent)][NMeD]-NMe2; lactam N-11) | C (A compound having a KD ratio of 0.1 or more and less than 3 is denoted as C) | B (a compound having 3 or more and less than 10 is denoted as B) |
| 0.47 | CCCN1C(=O)CN(C)C(=O)CN(C)C(=O)[C@H]([C@@H](C)CC)NC(=O)[C@H](CC(C)C)N(C)C(=O)C[C@@H](C(=O)N(C)C)N(C)C(=O)[C@H](C2CCCC2)N(C)C(=O)[C@](C)(Cc2ccccc2)NC(=O)[C@@H]2CCCN2C(=O)[C@H](CCc2cc(F)c(C(F)(F)F)c(F)c2)NC(=O)CN(C)C(=O)[C@@H]1Cc1ccc(C(F)(F)F)cc1 [PP0740] ([NMeL]I[Sar][Sar][NPrPhe(4-CF3)][Sar][hPhe(3,5-F2-4-CF3)]P[αMeF][NMeGly(cPent)][NMeD]-NMe2; lactam N-11) | C (A compound having a KD ratio of 0.1 or more and less than 3 is denoted as C) | B (a compound having 3 or more and less than 10 is denoted as B) |
| 0.28 | CCCN1C(=O)CN(C)C(=O)CN(C)C(=O)[C@H]([C@@H](C)CC)NC(=O)[C@H](CC(C)C)N(C)C(=O)C[C@@H](C(=O)N(C)C)N(C)C(=O)[C@H](C2CCCC2)N(C)C(=O)[C@](C)(COC)NC(=O)[C@@H]2CCCN2C(=O)[C@H](CCc2cc(F)c(C(F)(F)F)c(F)c2)NC(=O)CN(C)C(=O)[C@@H]1Cc1ccc(C(F)(F)F)cc1 [PP0741] ([NMeL]I[Sar][Sar][NPrPhe(4-CF3)][Sar][hPhe(3,5-F2-4-CF3)]P[αMeS](Me)[NMeGly(cPent)][NMeD]-NMe2; lactam N-11) | B (a compound having 3 or more and less than 10 is denoted as B) | B (a compound having 3 or more and less than 10 is denoted as B) |
| 0.51 | C=CCOC[C@]1(C)NC(=O)[C@@H]2CCCN2C(=O)[C@H](CCc2cc(F)c(C(F)(F)F)c(F)c2)NC(=O)CN(C)C(=O)[C@H](Cc2ccc(C(F)(F)F)cc2)N(CCC)C(=O)CN(C)C(=O)CN(C)C(=O)[C@H]([C@@H](C)CC)NC(=O)[C@H](CC(C)C)N(C)C(=O)C[C@@H](C(=O)N(C)C)N(C)C(=O)[C@H](C2CCCC2)N(C)C1=O [PP0742] ([NMeL]I[Sar][Sar][NPrPhe(4-CF3)][Sar][hPhe(3,5-F2-4-CF3)]P[αMeS](Allyl)[NMeGly(cPent)][NMeD]-NMe2; lactam N-11) | B (a compound having 3 or more and less than 10 is denoted as B) | B (a compound having 3 or more and less than 10 is denoted as B) |
| 0.68 | CCCN1C(=O)CN(C)C(=O)CN(C)C(=O)[C@H]([C@@H](C)CC)NC(=O)[C@H](CC(C)C)N(C)C(=O)C[C@@H](C(=O)N(C)C)N(C)C(=O)[C@H](C2CCCC2)N(C)C(=O)[C@](C)(COC(C)(C)C)NC(=O)[C@@H]2CCCN2C(=O)[C@H](CCc2cc(F)c(C(F)(F)F)c(F)c2)NC(=O)CN(C)C(=O)[C@@H]1Cc1ccc(C(F)(F)F)cc1 [PP0743] ([NMeL]I[Sar][Sar][NPrPhe(4-CF3)][Sar][hPhe(3,5-F2-4-CF3)]P[αMeS](tBu)[NMeGly(cPent)][NMeD]-NMe2; lactam N-11) | C (A compound having a KD ratio of 0.1 or more and less than 3 is denoted as C) | B (a compound having 3 or more and less than 10 is denoted as B) |
| 0.06 | CCCN1C(=O)CN(C)C(=O)CN(C)C(=O)[C@H]([C@@H](C)CC)NC(=O)[C@H](CC(C)C)N(C)C(=O)C[C@@H](C(=O)N(C)C)N(C)C(=O)[C@H](C2CCCC2)N(C)C(=O)C2(COC2)NC(=O)[C@@H]2CCCN2C(=O)[C@H](CCc2cc(F)c(C(F)(F)F)c(F)c2)NC(=O)CN(C)C(=O)[C@@H]1Cc1ccc(C(F)(F)F)cc1 [PP0744] ([NMeL]I[Sar][Sar][NPrPhe(4-CF3)][Sar][hPhe(3,5-F2-4-CF3)]P[Ac4c(3-oxa)][NMeGly(cPent)][NMeD]-NMe2; lactam N-11) | B (a compound having 3 or more and less than 10 is denoted as B) | B (a compound having 3 or more and less than 10 is denoted as B) |
| 0.029 | CCCN1C(=O)CN(C)C(=O)CN(C)C(=O)[C@H]([C@@H](C)CC)NC(=O)[C@H](CC(C)C)N(C)C(=O)C[C@@H](C(=O)N(C)C)N(C)C(=O)[C@H](C2CCCC2)N(C)C(=O)C2(CC(F)(F)C2)NC(=O)[C@@H]2CCCN2C(=O)[C@H](CCc2cc(F)c(C(F)(F)F)c(F)c2)NC(=O)CN(C)C(=O)[C@@H]1Cc1ccc(C(F)(F)F)cc1 [PP0745] ([NMeL]I[Sar][Sar][NPrPhe(4-CF3)][Sar][hPhe(3,5-F2-4-CF3)]P[Ac4c(3,3-F2)][NMeGly(cPent)][NMeD]-NMe2; lactam N-11) | C (A compound having a KD ratio of 0.1 or more and less than 3 is denoted as C) | B (a compound having 3 or more and less than 10 is denoted as B) |
| 0.43 | CCCN1C(=O)CN(C)C(=O)CN(C)C(=O)[C@H]([C@@H](C)CC)NC(=O)[C@H](CC(C)C)N(C)C(=O)C[C@@H](C(=O)N(C)C)N(C)C(=O)[C@H](CC(F)(F)F)N(C)C(=O)C2(CCCC2)NC(=O)[C@@H]2CCCN2C(=O)[C@H](CCc2cc(F)c(C(F)(F)F)c(F)c2)NC(=O)CN(C)C(=O)[C@@H]1Cc1ccc(C(F)(F)F)cc1 [PP0746] ([NMeL]I[Sar][Sar][NPrPhe(4-CF3)][Sar][hPhe(3,5-F2-4-CF3)]P[Ac5c][NMeAbu(4,4,4-F3)][NMeD]-NMe2; lactam N-11) | C (A compound having a KD ratio of 0.1 or more and less than 3 is denoted as C) | B (a compound having 3 or more and less than 10 is denoted as B) |
| 0.36 | CCCN1C(=O)CN(C)C(=O)CN(C)C(=O)[C@H](C(CC)CC)NC(=O)[C@H](CC(C)C)N(C)C(=O)C[C@@H](C(=O)N(C)C)N(C)C(=O)[C@H](C2CCCC2)N(C)C(=O)C2(CCCC2)NC(=O)[C@@H]2CCCN2C(=O)[C@H](CCc2cc(F)c(C(F)(F)F)c(F)c2)NC(=O)CN(C)C(=O)[C@@H]1Cc1ccc(C(F)(F)F)cc1 [PP0747] ([NMeL][Nva(3-Et)][Sar][Sar][NPrPhe(4-CF3)][Sar][hPhe(3,5-F2-4-CF3)]P[Ac5c][NMeGly(cPent)][NMeD]-NMe2; lactam N-11) | C (A compound having a KD ratio of 0.1 or more and less than 3 is denoted as C) | B (a compound having 3 or more and less than 10 is denoted as B) |
